Data from patent publication US6372779B1, “Anti-inflammatory compounds” (Ortho Pharmaceutical Corporation, priority 1997, dated 2002).
“Also recorded” adds a separate entry of the source.

Columns and labels:
[1] = system: oxazolone-induced ear swelling in CD-1 mice; experiment: mouse oxazolone-induced contact hypersensitization (MOCH), ear swelling; assay type: in vivo; settings: for inhibition in vivo at 1 mg: topical to ear, mouse, 24 hours after oxazolone challenge, read-out: Oxazolone Ear Swelling (MOCH) % inhibition vs. Vehicle at 1 mg; for topical antiinflammatory activity in the oxazolone model (in words): mouse ear
Protocol: Several triphenylpropanamide compounds of this invention, having varying affinities for the human glucocorticoid receptor, were tested for topical antiinflammatory activity in mouse ear inflammation models. […] Compounds having receptor affinities closer to hydrocortisone were as nearly active as hydrocortisone in suppressing mouse oxazolone-induced contact hypersensitization (MOCH) and phorbol ester-induced ear edema. The in vivo studies of this example were conducted as follows.
In determining the MOCH using the compounds of this invention, albino male CD-1 mice, 7-9 weeks old were induced on the shaved abdomen with 50 μl of 3% oxazolone in acetone/corn oil (Day 0). On Day 5, a 20 μl volume of 2% oxazolone in acetone was applied to the dorsal left ear of the mouse. Compounds (made in ethanol/propylene glycol, 70:30) were applied to the left ear in 20 μl volume, one hour after oxazolone challenge. The right ear was not treated. The mice were sacrificed by carbon dioxide inhalation 24 hours after oxazolone challenge, the left and right ears were removed and a 7 mm biopsy was removed from each ear and weighed. The difference in biopsy weights between the right and left ears was calculated. Antiinflammatory effects of compounds were evident as an inhibition of the increase in ear weight.

SMILES | inhibition in vivo at 1 mg [1] | melting point | topical antiinflammatory activity in the oxazolone model (in words) [1]
COc1ccc(CC(=O)NCC(c2ccccc2)C(c2ccccc2)c2ccccc2)cc1 (stereo not shown) [Compound 6] | 38% | 157 to 159 °C | –
O=C(Cc1ccccc1)NCC(c1ccccc1)C1c2ccccc2-c2ccccc21 (stereo not shown) [Compound 66] | 20% | 148.7 to 150.8 °C | –
O=C(Cc1ccccn1)NCC(c1ccccc1)C(c1ccccc1)c1ccccc1 (stereo not shown) [Compound 49] | 20% | 120.1 to 121.7 °C | –
O=C(Cc1cccs1)NCC1(c2ccccc2)CC1(c1ccccc1)c1ccccc1 (stereo not shown) [Compound 88] | 29% | 135 to 137 °C | –
O=S(=O)(NCC(c1ccc(Cl)cc1)C(c1ccccc1)c1ccccc1)c1cccs1 (stereo not shown) [Compound 41] | 3% | 180.4 to 181.9 °C | –
O=C(Cc1ccsc1)NCC(c1ccccc1)C1c2ccccc2CCc2ccccc21 (stereo not shown) [Compound 76] | 23% | 167.3 to 169.3 °C | –
O=C(NCC1(c2ccccc2)CC1(c1ccccc1)c1ccccc1)Oc1ccccc1 (stereo not shown) [Compound 96] | 52% | 146 to 147 °C | –
O=C(Cc1ccccc1Cl)NCC(c1ccccc1)C(c1ccc(F)cc1)c1ccc(F)cc1 (stereo not shown) [Compound 16] | 46% | 127.3 to 129.4 °C | moderate topical activity
O=C(Cc1cccs1)NCC(c1ccccc1)C1c2ccccc2CCc2ccccc21 (stereo not shown) [Compound 75] | 26% | 175 to 177.5 °C | –
Cc1ccc(C(=O)NCC2(c3ccccc3)CC2(c2ccccc2)c2ccccc2)s1 (stereo not shown) [Compound 91] | 13% | 168 to 170.5 °C | –
O=C(Cc1ccccc1)NCC1(c2ccccc2)CC1(c1ccccc1)c1ccccc1 (stereo not shown) [Compound 78] | – | 150 to 152 °C | –
O=C(NCC1(c2ccccc2)CC1(c1ccccc1)c1ccccc1)c1cccs1 (stereo not shown) [Compound 90] | 65% | 152.5 to 155 °C | –
COc1ccccc1CCC(=O)NCC(c1ccccc1)C(c1ccccc1)c1ccccc1 (stereo not shown) [Compound 20] | 32% | 137 to 140 °C | –
CC(C)C(=O)NCC1(c2ccccc2)CC1(c1ccccc1)c1ccccc1 (stereo not shown) [Compound 84] | 54% | 167 to 168 °C | –
Cc1ccc(S(=O)(=O)NCC(c2ccccc2)C(c2ccccc2)c2ccccc2)cc1 (stereo not shown) [Compound 26] | -5% | 139.7 to 142.1 °C | –
COc1ccc(CC(=O)NCC2(c3ccccc3)CC2(c2ccccc2)c2ccccc2)cc1OC (stereo not shown) [Compound 79] | 18% | 131 to 133.5 °C | –
O=C(NCC(c1ccccc1)C(c1ccccc1)c1ccccc1)Nc1ccccc1Cl (stereo not shown) [Compound 52] | – | 210 to 211 °C | –
CCCCC(=O)NCC1(c2ccccc2)CC1(c1ccccc1)c1ccccc1 (stereo not shown) [Compound 87] | 22% | 122 to 123 °C | –
O=C(CCc1ccccc1)NCC(c1ccccc1)C(c1ccccc1)c1ccccc1 (stereo not shown) [Compound 19] | 2% | 107.4 to 109 °C | –
O=C(Cc1cccs1)NCC(c1ccccc1)C(c1ccccc1)c1ccccc1 (stereo not shown) [Compound 29, N-(2-thiophene)acetyl-2,3,3-triphenylpropylamine] | 83% | 130 to 132 °C | equiactive with hydrocortisone; also recorded: inhibited ear swelling in a dose-dependent manner
O=C(Cc1c(Cl)cccc1Cl)NCC(c1ccccc1)C(c1ccccc1)c1ccccc1 (stereo not shown) [Compound 8] | – | 165.2 to 166.5 °C | –
O=C(CCCc1cccs1)NCC(c1ccccc1)C(c1ccccc1)c1ccccc1 (stereo not shown) [Compound 37] | 25% | 105.5 to 106.9 °C | –
CCCC(=O)NCC(c1ccccc1)C(c1ccccc1)c1ccccc1 (stereo not shown) [Compound 60] | 27% | 88 to 89 °C | –
Cc1ccc(CC(=O)NCC(c2ccccc2)C(c2ccccc2)c2ccccc2)cc1 (stereo not shown) [Compound 4] | 1% | 142.3 to 143.6 °C | –
CN(CC(c1ccccc1)C(c1ccccc1)c1ccccc1)C(=O)Cc1cccs1 (stereo not shown) [Compound 44] | 3% | 107 to 109.3 °C | –
O=C(C=Cc1cccs1)NCC(c1ccccc1)C(c1ccccc1)c1ccccc1 (stereo not shown) [Compound 38] | 13% | 217.3 to 218.9 °C | –
O=C(NCC(c1ccccc1)C(c1ccccc1)c1ccccc1)Oc1ccc(F)cc1 (stereo not shown) [Compound 58] | 16% | 150 to 151 °C | –
O=C(CCCc1ccccc1)NCC(c1ccccc1)C(c1ccccc1)c1ccccc1 (stereo not shown) [Compound 24] | 21% | 78.1 to 81 °C | –

SMILES | inhibition in vivo at 1 mg [1] | melting point | topical antiinflammatory activity in the oxazolone model (in words) [1]
O=C(NCC(c1ccccc1)C(c1ccccc1)c1ccccc1)Nc1ccccc1F (stereo not shown) [Compound 53] | 24% | 190 to 191 °C | –
O=C(Cc1ccccc1)NCC(c1ccccc1)C1c2ccccc2CCc2ccccc21 (stereo not shown) [Compound 73] | – | 172.7 to 174.6 °C | –
O=C(NCC1(c2ccccc2)CC1(c1ccccc1)c1ccccc1)Nc1ccccc1 (stereo not shown) [Compound 92] | 42% | 209 to 210 °C | –
O=C(CCc1c[nH]c2ccccc12)NCC(c1ccccc1)C(c1ccccc1)c1ccccc1 (stereo not shown) [Compound 48] | 22% | 100 to 114 °C | –
O=C(NCC(c1ccccc1)C(c1ccccc1)c1ccccc1)Oc1ccc2ccccc2c1 (stereo not shown) [Compound 59] | – | 151 to 152 °C | –
O=C(Cc1c[nH]c2ccccc12)NCC(c1ccccc1)C(c1ccccc1)c1ccccc1 (stereo not shown) [Compound 47] | 51% | 89 to 93 °C | –
CCCC(=O)NCC1(c2ccccc2)CC1(c1ccccc1)c1ccccc1 (stereo not shown) [Compound 83] | -4% | 149 to 150 °C | –
O=C(Cc1ccsc1)NCC(c1ccc(Cl)cc1)C(c1ccccc1)c1ccccc1 (stereo not shown) [Compound 35] | 36% | 126.4 to 127.9 °C | –
O=C(NCC1(c2ccccc2)CC1(c1ccccc1)c1ccccc1)C(c1ccccc1)c1ccccc1 (stereo not shown) [Compound 82] | 23% | 166 to 169 °C | –
O=C(C=Cc1ccsc1)NCC(c1ccccc1)C(c1ccccc1)c1ccccc1 (stereo not shown) [Compound 39] | 24% | 204.8 to 206.5 °C | –
Cc1ccc(S(=O)(=O)CC(=O)NCC(c2ccccc2)C(c2ccccc2)c2ccccc2)cc1 (stereo not shown) [Compound 28] | 28% | 190.3 to 191.9 °C | –
O=C(NCC(c1ccccc1)C(c1ccccc1)c1ccccc1)c1ccsc1 (stereo not shown) [Compound 42] | 27% | 153.5 to 154.7 °C | –
O=C(Cc1ccccc1)NCC(c1ccccc1)C(c1ccc(F)cc1)c1ccc(F)cc1 (stereo not shown) [Compound 15] | – | – | moderate topical activity
COc1ccc(CC(=O)NCC(c2ccccc2)C(c2ccccc2)c2ccccc2)cc1OC (stereo not shown) [Compound 7] | – | 123 to 124.5 °C | –
CC(C)C(=O)NCC(c1ccccc1)C(c1ccccc1)c1ccccc1 (stereo not shown) [Compound 61] | 17% | 114 to 115 °C | –
COc1ccccc1CCC(=O)NCC(c1ccccc1)C1c2ccccc2CCc2ccccc21 (stereo not shown) [Compound 74] | 18% | 134.3 to 136.8 °C | –
O=C(Cc1cccc(C(F)(F)F)c1)NCC(c1ccccc1)C(c1ccccc1)c1ccccc1 (stereo not shown) [Compound 11] | 33% | 108.8 to 111.3 °C | –
O=C(Cc1cccs1)NCC(c1ccccc1)C1c2ccccc2-c2ccccc21 (stereo not shown) [Compound 71] | – | 128.7 to 130.5 °C | –
O=C(Cc1ccccc1Cl)NCC1(c2ccccc2)CC1(c1ccccc1)c1ccccc1 (stereo not shown) [Compound 80, N-(2chlorophenyl)acetyl-1,2,2-triphenylcyclopropylmethylamine] | 54% | 128.5 to 130.5 °C | –
O=C(Cc1ccc(Cl)cc1)NCC(c1ccc2c(c1)OCO2)C(c1ccccc1)c1ccccc1 (stereo not shown) [Compound 98] | – | – | equiactive with hydrocortisone
O=C(NCC(c1ccccc1)C(c1ccccc1)c1ccccc1)C(c1ccccc1)c1ccccc1 (stereo not shown) [Compound 13] | 10% | 178.7 to 179.8 °C | –
O=S(=O)(NCC(c1ccccc1)C(c1ccccc1)c1ccccc1)c1cccs1 (stereo not shown) [Compound 40] | 15% | 169 to 170.9 °C | –
O=C(Cc1cccs1)NCC(c1ccc(Cl)cc1)C(c1ccccc1)c1ccccc1 (stereo not shown) [Compound 34] | 29% | 126.3 to 127 °C | –
O=C(NCc1ccc(Cl)cc1Cl)NCC(c1ccccc1)C(c1ccccc1)c1ccccc1 (stereo not shown) [Compound 55] | 18% | 166 to 167 °C | –
C[C@]12CCC(=O)C=C1CC[C@@H]1[C@@H]2[C@@H](O)C[C@@]2(C)[C@H]1CC[C@]2(O)C(=O)CO [hydrocortisone, reference compound] | 75 to 85% | – | –
O=C(Cc1ccc(Cl)cc1)NCC(c1ccccc1)C(c1ccccc1)c1ccccc1 (stereo not shown) [Compound 3] | – | 168.4 to 170.9 °C | –
CC(C)(C)C(=O)NCC1(c2ccccc2)CC1(c1ccccc1)c1ccccc1 (stereo not shown) [Compound 86] | – | 121 to 122 °C | –
